By Papp A→B is commonly meant the apparent permeability from the apical to the basolateral side of a cell layer. For orientation: solubility means how much of the substance goes into solution per volume. A word on the chromatographic logD: it is a lipophilicity value derived from retention on a column.

Values after ≈ are worked out from the molar mass of the structure shown. Like-named read-outs stand apart in the source and are kept apart here.

A short description of data set [1]: Permeability in Caco-2 cells, apical to basolateral. It is filed as in vitro ADME. More on the design: dose or concentration left out as unconfirmed. As to conditions: human; 21d Caco-2 monolayer, apical pH 6.5 to basolateral pH 7.4, 60 minutes. The text has this:
The human adenocarcinoma cell line Caco-2 is used as an in vitro system to predict oral absorption. These cells serve as a model of small bowel tissue and permeation through these cells is a predictor for gastro-intestinal absorption. Further to being a model for oral absorption, permeability in Caco-2 cells may be predictive for the blood brain barrier permeability (P. Garberg et al.; Toxicology in vitro 19 (2005); 299-334). […] The permeability in Caco-2 cells has been tested by the following method:
The permeability of selected compounds of formula I across Caco-2 (21d Caco-2-culture) monolayer in the apical to basolateral direction is investigated. Control substances were ^3H-propranolol and ^3H-mannitol.
The nominal concentration of the test items is […]. The pH value is set to 6.5 for the apical transport medium and to 7.4 for the basolateral medium. Samples are obtained following 60 minutes (120 minutes for control samples) incubation from the basolateral receiver chamber. At sampling time approximately 600 μL of each well are transferred into an eppendorf vial and stored between −12° and −30° C. until HPLC or LC-MS/MS analysis. The control substances are quantified by liquid scintillation.
(Caco-2 cells form a polarised layer with tight junctions and transporters.)

A short description of data set [2]: Solubility in 0.1 N HCl, PBS buffer, FaSSIF and FeSSIF. It counts as physicochemical. The settings on record: thermodynamic from solid, ambient temperature. As to the method:
For testing solubility, saturated solutions of selected compounds of formula I are prepared in four different systems and compared to the solubility of entacapone. The solubility is tested in 0.1 N HCl (pH 1), PBS buffer (pH 7.4) and in two simulated gastric fluids, FaSSIF at pH 6.5 (for fasting state) and FeSSIF at pH 5.0 (for fed state) at ambient temperature. The content of the FaSSIF simulated gastric fluid is as follows:
The solubility testing is carried out by the following method: An excess amount of each compound is added to a 0.1 N HCl, PBS buffer, FeSSIF and FaSSIF. The suspensions are shaken for 10 min. After centrifugation the concentration is determined by HPLC. Reversed phase gradient HPLC method, column YMC Pro C8, 50 mm×4.0 mm, 3 μm, Eluent A: Water:trifluoroacetic acid (100:0.5 (v/v)), Eluent B: Acetonitrile:trifluoroacetic:acid (100:0.5 (v/v)). Column temperature 30° C., Flow rate 3.0 mL/min, Detection wavelength: 220 nm

Data set [3] can be described thus: Chemical hydrolysis stability at pH 1 and pH 7.4 (HPLC). It counts as physicochemical. As to conditions: 37° C., over 12 h. As to the method:
The stability of compounds of the present invention is tested at pH 1 and at pH 7.4. The testing is carried out by the following HPLC method:
Chemical hydrolysis rates t1/2 [h] of selected compounds of formula I are determined in 0.1 N HCl (pH 1) and PBS buffer (pH 7.4) solution. Solutions are prepared by dissolving an appropriate amount of compound in 0.1 N HCl and PBS buffer solution. Samples were withdrawn at designated time intervals and analysed for remaining prodrug by HPLC at 37° C. over 12 h.
Reversed phase gradient HPLC method, column YMC Pro C8, 50 mm×4.0 mm, 3 μm, Eluent A: Water:trifluoroacetic acid (100:0.5 (v/v)), Eluent B: Acetonitrile:trifluoroacetic:acid (100:0.5 (v/v)). Column temperature 30° C., Flow rate 3.0 mL/min, Detection wavelength: 220 nm
For evaluation, the peak area of the respective compound from the first injection is defined as 100% relative concentration. The peak areas of all other subsequent injections are calculated in percentage relating to this standard. (relative concentration in %). The relative concentrations are plotted in a logarithmic scale (ln) against the injection times. Based on the assumption of a first order kinetic, the rate constant and half life times (t1/2 [h]) can be calculated.

The nature of data set [4]: Log D (pH 7.4) by isocratic HPLC. The settings on record: YMC Pro C18 column, phosphate buffer pH 7.4/acetonitrile 45/55. It counts as physicochemical. As to the method: LogD is an indicator for absorption and lipophilicity for ionized compounds under defined pH conditions and is measured by applying an isocratic HPLC Method at pH 7.4.
The log D has been tested at pH 7.4. The testing has been carried out by the following method: Isocratic HPLC method: Column YMC Pro C18, 150 mm×4.0 mm, 3 μm, Eluent Phosphate buffer pH 7.4/acetonitrile (45/55, (v/v)), Runtime 15-60 min, Flow rate 1.2 ml/min, Detection wavelength: 220 nm

A short description of another data set: Plasma stability ex vivo. The settings on record: human plasma, 37° C., read-out: t1/2 plasma. It is filed as in vitro ADME. As to the method: Plasma stability is determined in human and rat plasma ex vivo. For the determination of the plasma stability of the compounds of formula I, the test compounds were incubated with human plasma (c=5 μg/mL) at 37° C. for certain time intervals up to 60, resp. 120 min (depending on the compound). Afterwards the incubations were stopped by equivalent addition of acetonitrile for protein precipitation, and the samples were mixed and centrifuged. The supernatants were adequately diluted and analyzed by HPLC with UV detection at 305 nm.
The degradation of the compounds of formula I as well as the formation of the active drug entacapone were monitored, and the half-life times of the compounds of formula I were calculated from the obtained peak areas.

Where [5] appears, read: 0.1 N HCl, pH 1, simulated gastric fluid, shaken 10 min, read-out: Solubility 0.1N HCl Ph 1.0.
[6] abbreviates: FaSSIF, pH 6.5, fassif, fasting state fluid, read-out: Solubility FaSSIF Ph 6.5.
Where [7] appears, read: FeSSIF, pH 5, fessif, fed state fluid, read-out: Solubility FeSSIF Ph 5.0.
[8] abbreviates: PBS buffer, pH 7.4, aqueous buffer, read-out: Solubility PBS Ph 7.4.
Setting [9] is: pH 1, 0.1 N HCl, read-out: t1/2 at pH 1 (converted).
The mark [10] stands for this setting: pH 7.4, PBS buffer, read-out: t1/2 at pH 7.4 (converted).

For the molecule `CCCCCOC(=O)Oc1cc(/C=C(\C#N)C(=O)N(CC)CC)cc([N+](=O)[O-])c1O` [Compound 6, Carbonic acid 5-((E)-2-cyano-2-diethylcarbamoyl-vinyl)-2-hydroxy-3-nitro-phenyl ester pentyl ester], the Papp A→B at 60 min in data set [1] is < 5.1 ×10⁻⁶ cm/s.

Take `CCN(CC)C(=O)/C(C#N)=C/c1cc(OC(=O)OCc2ccccc2)c(O)c([N+](=O)[O-])c1` [Compound 11, Carbonic acid benzyl ester 5-((E)-2-cyano-2-diethylcarbamoyl-vinyl)-2-hydroxy-3-nitro-phenyl ester]: the solubility at 10 min in data set [2] (setting [5]) was 150 µg/mL (≈ 341 µM); in data set [2] (setting [6]), 80 µg/mL (≈ 182 µM); in data set [2] (setting [7]), 20 µg/mL (≈ 45.5 µM); in data set [2] (setting [8]), 280 µg/mL (≈ 637 µM). The half-life in data set [3] (setting [9]) was 3 h; in data set [3] (setting [10]) it was 4.1 h. Further, the chromatographic logD in data set [4] is 1.6.

As for `CCN(CC)C(=O)/C(C#N)=C/c1cc(OC(=O)OCC2COC(C)(C)O2)c(O)c([N+](=O)[O-])c1` (stereo not shown) [Compound 12, Carbonic acid 5-((E)-2-cyano-2-diethylcarbamoyl-vinyl)-2-hydroxy-3-nitro-phenyl ester 2,2-dimethyl-[1,3]dioxolan-4-ylmethyl ester], the half-life in data set [3] (setting [9]) is < 1 h; in data set [3] (setting [10]) it was 2.8 h. The molecule also yielded a Papp A→B at 60 min in data set [1] of 2.3 ×10⁻⁶ cm/s.

For `CCN(CC)C(=O)COC(=O)Oc1cc(/C=C(\C#N)C(=O)N(CC)CC)cc([N+](=O)[O-])c1O` [Compound 18, Carbonic acid 5-((E)-2-cyano-2-diethylcarbamoyl-vinyl)-2-hydroxy-3-nitro-phenyl ester diethylcarbamoylmethyl ester], the Papp A→B at 60 min in data set [1] is < 5.1 ×10⁻⁶ cm/s.

In data set [1], `CCN(CC)C(=O)/C(C#N)=C/c1cc(OC(=O)OC(C)(C)C(=O)OC)c(O)c([N+](=O)[O-])c1` [Compound 20, 2-[5-((E)-2-Cyano-2-diethylcarbamoyl-vinyl)-2-hydroxy-3-nitro-phenoxycarbonyloxy]-2-methyl-propionic acid methyl ester] had a Papp A→B at 60 min of 11.7 ×10⁻⁶ cm/s.

Consider `CCOC(=O)C(C)(C)OC(=O)Oc1cc(/C=C(\C#N)C(=O)N(CC)CC)cc([N+](=O)[O-])c1O` [Compound 26, 2-[5-((E)-2-Cyano-2-diethylcarbamoyl-vinyl)-2-hydroxy-3-nitro-phenoxycarbonyloxy]-2-methyl-propionic acid ethyl ester], for which the Papp A→B at 60 min in data set [1] was < 5.1 ×10⁻⁶ cm/s.

As to `CCN(CC)C(=O)/C(C#N)=C/c1cc(OC(=O)OCc2ccc([N+](=O)[O-])cc2)c(O)c([N+](=O)[O-])c1` [Compound 27, Carbonic acid 5-((E)-2-cyano-2-diethylcarbamoyl-vinyl)-2-hydroxy-3-nitro-phenyl ester 4-nitro-benzyl ester], the half-life in data set [3] (setting [9]) was 3.4 h; in data set [3] (setting [10]), 1.6 h. Further, the chromatographic logD in data set [4] is > 8. The half-life at 5 μg/mL in “Plasma stability ex vivo” was > 8 min. Further, the Papp A→B at 60 min in data set [1] stood at 18.1 ×10⁻⁶ cm/s.

On to `CCOC(=O)CC(C)OC(=O)Oc1cc(/C=C(\C#N)C(=O)N(CC)CC)cc([N+](=O)[O-])c1O` (stereo not shown) [Compound 34, 3-[5-((E)-2-Cyano-2-diethylcarbamoyl-vinyl)-2-hydroxy-3-nitro-phenoxycarbonyloxy]-butyric acid ethyl ester], for which the Papp A→B at 60 min in data set [1] amounted to 14.6 ×10⁻⁶ cm/s.

For the molecule `CCN(CC)CCOC(=O)Oc1cc(/C=C(\C#N)C(=O)N(CC)CC)cc([N+](=O)[O-])c1O` [Compound 55, Carbonic acid 5-((E)-2-cyano-2-diethylcarbamoyl-vinyl)-2-hydroxy-3-nitro-phenyl ester 2-diethylamino-ethyl ester], the solubility at 10 min in data set [2] (setting [5]), in data set [2] (setting [6]), in data set [2] (setting [7]) and in data set [2] (setting [8]) was > 1000 µg/mL in each case. In addition, the half-life in data set [3] (setting [9]) is 4.1 h; in data set [3] (setting [10]), < 1 h. Also, the chromatographic logD in data set [4] is 1.

`C#CCCOC(=O)Oc1cc(/C=C(\C#N)C(=O)N(CC)CC)cc([N+](=O)[O-])c1O` [Compound 83, Carbonic acid but-3-ynyl ester 5-((E)-2-cyano-2-diethylcarbamoyl-vinyl)-2-hydroxy-3-nitro-phenyl ester]: the solubility at 10 min in data set [2] (setting [5]) was 10 µg/mL (≈ 24.9 µM); in data set [2] (setting [6]), 910 µg/mL (≈ 2270 µM); in data set [2] (setting [7]) it was 430 µg/mL (≈ 1070 µM); in data set [2] (setting [8]), 850 µg/mL (≈ 2120 µM). In addition, the values for the half-life in data set [3] (setting [9]) and in data set [3] (setting [10]) were 12.8 h and 3 h, respectively. The same molecule had a chromatographic logD in data set [4] of 1.1. In data set [1], the Papp A→B at 60 min turned out to be 4.9 ×10⁻⁶ cm/s.

Consider `CCN(CC)C(=O)/C(C#N)=C/c1cc(OC(=O)OCc2ccc3c(c2)OCO3)c(O)c([N+](=O)[O-])c1` [Compound 131, Carbonic acid benzo[1,3]dioxol-5-ylmethyl ester 5-((E)-2-cyano-2-diethylcarbamoyl-vinyl)-2-hydroxy-3-nitro-phenyl ester], for which the solubility at 10 min in data set [2] (setting [5]) is 20 µg/mL (≈ 41.4 µM); in data set [2] (setting [6]), 960 µg/mL (≈ 1990 µM); in data set [2] (setting [7]), 710 µg/mL (≈ 1470 µM); in data set [2] (setting [8]), 970 µg/mL (≈ 2010 µM). For the same molecule, the half-life is 15.3 h in data set [3] (setting [9]) and 3.4 h in data set [3] (setting [10]). In data set [4], this molecule returned a chromatographic logD of 0.9.

`CCN(CC)C(=O)/C(C#N)=C/c1cc(OC(=O)OC(C)c2ccccc2)c(O)c([N+](=O)[O-])c1` (stereo not shown) [Compound 137, Carbonic acid 5-((E)-2-cyano-2-diethylcarbamoyl-vinyl)-2-hydroxy-3-nitro-phenyl ester 1-phenyl-ethyl ester]: the solubility at 10 min in data set [2] (setting [6]) amounted to 150 µg/mL (≈ 331 µM); in data set [2] (setting [7]), 20 µg/mL (≈ 44.1 µM); in data set [2] (setting [8]), 340 µg/mL (≈ 750 µM). In addition, the half-life in data set [3] (setting [9]) is 7.8 h; in data set [3] (setting [10]), 21.4 h. Also, in data set [4], the chromatographic logD is 2.6.

In the case of `CCN(CC)C(=O)/C(C#N)=C/c1cc(OC(=O)OCC(=O)O)c(O)c([N+](=O)[O-])c1` [Compound 146, [5-((E)-2-Cyano-2-diethylcarbamoyl-vinyl)-2-hydroxy-3-nitro-phenoxycarbonyloxy]-acetic acid], the solubility at 10 min was 30 µg/mL (≈ 73.6 µM) in data set [2] (setting [5]), 630 µg/mL (≈ 1550 µM) in data set [2] (setting [6]), 250 µg/mL (≈ 614 µM) in data set [2] (setting [7]) and 830 µg/mL (≈ 2040 µM) in data set [2] (setting [8]). The half-life in data set [3] (setting [9]) is 11 h; in data set [3] (setting [10]) it was 12.2 h. Besides, the chromatographic logD in data set [4] was found to be 1.7.

These data come from patent US20080103191A1, “ENTACAPONE-DERIVATIVES” (priority 2006, published 2008).
